From ChEMBL document CHEMBL2163191, “Antiallergic activity profile in vitro RBL-2H3 and in vivo passive cutaneous anaphylaxis mouse model of new sila-substituted 1,3,4-oxadiazoles” (J Med Chem, 2012) come the findings set out here.

Activity calls are given as the source filed them. The calls are words filed in the database; no cut-off is given here.

The test system of series [1] is RBL-2H3. The experiment in a line: Antidegranulation effect in DNP-HSA induced rat RBL2H3 cells assessed as IgE/Ag complex-induced degranulation preincubated for 30 mins before DNP-HSA challenge for 15 mins by beta-hexosaminidase release based microplate reader method. It counts as functional, cell-based.
The test system of series [2] is RBL-2H3. The series can be described thus: Cytotoxicity against IgE/Ag-stimulated rat RBL2H3 cells at 50 to 200 uM incubated for 23 hrs by Ez-cytox assay. The note with it: rbl-2h3, 23 h. It counts as cell-based.
Series [3] relates to Mus musculus. The experiment in a line: Antiallergic activity in IgE/Ag-induced passive cutaneous anaphylactic ICR mouse model injected with DNP-HSA-Evans blue dye post DNP-IgE challenge at 50 to 100 mg/kg, po 1 hr before antigenic challenge measured after 2 hrs post IgE/Ag challenge. The class given is functional, organism-based.
The test system of series [4] is RBL-2H3. The experiment in a line: Inhibition of PI3K-mediated Akt phosphorylation in IgE/Ag-induced rat RBL2H3 cells incubated in presence of DNP-HSA for 1 hr post compound dosing by Western blotting. It counts as cell-based. A general note: Immunoblotting shows a protein as a band on a membrane.
In series [5] the test system is RBL-2H3. The experiment in a line: Inhibition of TNFalpha mRNA expression in IgE/Ag-stimulated rat RBL2H3 cells incubated in presence of DNP-HSA for 1 hr post compound dosing by RT-PCR. It counts as functional, cell-based.
Series [6] concerns Mus musculus. The experiment in a line: Antiallergic activity in IgE/Ag-induced passive cutaneous anaphylactic ICR mouse model injected with DNP-HSA-Evans blue dye post DNP-IgE challenge at 50 mg/kg, po 1 hr before antigenic challenge measured after 2 hrs post IgE/Ag challenge. It counts as functional, organism-based. The arrangement: dose 50 mg/kg.

On to `CC(C)(C)CS(=O)(=O)Cc1nnc(-c2ccc(Cl)cc2)o1`, for which the outcome in the series with RBL-2H3 [1] was inactive.

`C[Si](C)(C)CS(=O)(=O)Cc1nnc(-c2ccc(Cl)cc2)o1`: the Activity result in the series with RBL-2H3 [1] is “Dose-dependent effect”; in the series on RBL-2H3 [2], “Non-toxic”. In addition, the result with Mus musculus [3] was Active. Moreover, the inhibition result in the series with RBL-2H3 [4] and in the series with RBL-2H3 [5] was “Dose-dependent effect” each time.

On to `CN(C)CCOC(c1ccccc1)c1ccccc1`, for which, in the series on Mus musculus [6], the result was Active.
